Test results: the supplement of paper PMC12592484

Tests used:
Assay in all cases: drug sensitivity score (DSS2, normalised partial AUC of dose-response, 72 h CellTiter-Glo viability) (DSS (dimensionless)); higher = more sensitive (stronger growth inhibition / cytotoxicity); extreme values may be limits of the assay
22Rv1 = tested on: 22Rv1
In short: (§1)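 Cells were added to 384-well plates already holding compounds at five doses over a 10,000-fold range: low-passage primary prostate cancer-associated fibroblasts, PF179T, WPMY-1, LNCaP and 22Rv1. Viability was measured 72 h later by CellTiter-Glo 2.0 luminescence and scaled to vehicle and positive-control wells. The drug sensitivity score, computed in BREEZE, is a partial area under the fitted logistic dose–response curve divided by the log of its upper asymptote, with higher scores meaning greater sensitivity.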

CAF#1 = tested on: CAF#1 (primary prostate cancer-associated fibroblasts of myCAF-like type)
In short: as §1

CAF#2 = tested on: CAF#2 (primary prostate cancer-associated fibroblasts of iCAF-like type)
In short: as §1

CAF#3 = tested on: CAF#3 (primary prostate cancer-associated fibroblasts of myCAF-like type)
In short: as §1

CAF#4 = tested on: CAF#4 (primary prostate cancer-associated fibroblasts of iCAF-like type)
In short: as §1

CAF#5 = tested on: CAF#5 (primary prostate cancer-associated fibroblasts of myCAF-like type)
In short: as §1

CAF#6 = tested on: CAF#6 (primary prostate cancer-associated fibroblasts of iCAF-like type)
In short: as §1

CAF#7 = tested on: CAF#7 (primary prostate cancer-associated fibroblasts of myCAF-like type)
In short: as §1

LNCAP = tested on: LNCAP
In short: as §1

PF179T = tested on: PF179T
In short: as §1

WPMY-1 = tested on: WPMY-1
In short: as §1

SMILES	drug sensitivity score (22Rv1)	drug sensitivity score (CAF#1)	drug sensitivity score (CAF#2)	drug sensitivity score (CAF#3)	drug sensitivity score (CAF#4)	drug sensitivity score (CAF#5)	drug sensitivity score (CAF#6)	drug sensitivity score (CAF#7)	drug sensitivity score (LNCAP)	drug sensitivity score (PF179T)	drug sensitivity score (WPMY-1)
Nc1cc(F)ccc1NC(=O)/C=C/c1cnn(C/C=C/c2ccccc2)c1 [RGFP966] (tested concentration range 1-10000 nM)	1.8	3.1	3.2	2.6	3.3	3.1	2.1	2.7	8.3	3.8	2.2
COC(=O)c1ccc([C@H]2c3[nH]c4ccccc4c3C[C@H](C(=O)OC)N2C(=O)CCl)cc1 [RSL3] (tested concentration range 1-10000 nM)	0	0.7	3	2.5	0	0.3	0.6	9.5	0.9	0	0
Cc1cn(-c2cc(NC(=O)c3ccc(C)c(Nc4nccc(-c5cnccn5)n4)c3)cc(C(F)(F)F)c2)cn1 [Radotinib] (tested concentration range 1-10000 nM)	0	0.5	0	0	0.1	0	0	0	0.3	0	0
CC(C)(C)Cn1c(N)nc2ccc(-c3[nH]c(C(C)(C)C)nc3-c3ccc(F)cc3)nc21 [Ralimetinib] (tested concentration range 1-10000 nM)	3.8	0.8	1.9	2.1	0.1	0	0.1	0	11.2	0	2.8
O=C(c1ccc(OCCN2CCCCC2)cc1)c1c(-c2ccc(O)cc2)sc2cc(O)ccc12 [Raloxifene] (tested concentration range 1-10000 nM)	2.9	0	0.7	2.4	0.5	0.2	0.4	0.5	2.9	0.8	5.8
Cc1nc(=O)c2cc(CN(C)c3ccc(C(=O)N[C@@H](CCC(=O)O)C(=O)O)s3)ccc2[nH]1 [Raltitrexed] (tested concentration range 0.1-1000 nM)	0	3.3	4.4	0	0.8	2.8	0.2	0	11.1	0.3	14
CNC(=O)c1cc(Oc2ccc(NC(=O)Nc3ccc(Cl)c(C(F)(F)F)c3)c(F)c2)ccn1 [Regorafenib] (tested concentration range 1-10000 nM)	6	2.8	3.4	3.7	2.4	3.2	1	2.7	7.2	1.9	3.8
CCOC(=O)C1=CCCC[C@H]1S(=O)(=O)Nc1ccc(F)cc1Cl [Resatorvid] (tested concentration range 1-10000 nM)	0	0	0	5.7	0	0	3.6	0.3	0.4	0	0
CCOCc1nc2c(N)nc3ccccc3c2n1CC(C)(C)O [Resiquimod] (tested concentration range 1-10000 nM)	0	0	0.4	0	0	0	0	0	0	0	0
CN(C)Cc1ccc(S(=O)(=O)n2ccc(/C=C/C(=O)NO)c2)cc1 [Resminostat] (tested concentration range 1-10000 nM)	12.3	4.4	5.9	6	6	4.6	5.9	4.7	12.2	6	13.6
CN(C)C(=O)c1cc2cnc(Nc3ccc(N4CCNCC4)cn3)nc2n1C1CCCC1 [Ribociclib] (tested concentration range 1-10000 nM)	5	0	4.6	2.9	2.7	2.5	2.4	3	7.7	3.7	0
C=CC(=O)Nc1cccc(Nc2nc(Nc3ccc(N4CCN(C(C)=O)CC4)cc3OC)ncc2C(F)(F)F)c1 [Rociletinib] (tested concentration range 0.5-5000 nM)	6	6.6	8.3	2.1	6.8	5.2	2.6	4	2.6	5	7
C/C=C1\NC(=O)[C@H]2CSSCC/C=C/[C@H](CC(=O)N[C@H](C(C)C)C(=O)N2)OC(=O)[C@H](C(C)C)NC1=O [Romidepsin] (tested concentration range 0.1-1000 nM)	27.9	23.1	23.4	23.1	21.4	25	26.6	24.4	35.5	22.5	30
